Assay results taken from ChEMBL document CHEMBL1667802, “1H-imidazo[4,5-c]pyridine-4-carbonitrile as cathepsin S inhibitors: separation of desired cellular activity from undesired tissue accumulation through optimization of basic nitrogen pka” (Bioorg Med Chem Lett, 2011).

Each compound was assayed against T1, Cathepsin L2 (Homo sapiens, UniProt O60911) (assay: Inhibition of human cathepsin V).
T1 sequence (O60911 whole entry): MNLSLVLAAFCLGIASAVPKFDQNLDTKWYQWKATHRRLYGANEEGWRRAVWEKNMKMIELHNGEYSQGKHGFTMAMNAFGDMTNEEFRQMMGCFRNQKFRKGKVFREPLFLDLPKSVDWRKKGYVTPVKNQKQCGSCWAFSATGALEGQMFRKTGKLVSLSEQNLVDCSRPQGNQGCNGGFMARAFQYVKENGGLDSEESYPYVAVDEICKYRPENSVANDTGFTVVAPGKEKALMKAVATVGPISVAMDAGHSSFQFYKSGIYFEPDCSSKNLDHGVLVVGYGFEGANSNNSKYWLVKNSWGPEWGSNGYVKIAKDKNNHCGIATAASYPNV

SMILES	IC50
CN1CCC(CCOc2ccc(-c3cc4c(ncn4C)c(C#N)n3)cc2C(F)(F)F)CC1	> 10 µM
CC(=O)N1CCC(CCOc2ccc(-c3cc4c(ncn4C)c(C#N)n3)cc2C(F)(F)F)CC1	> 10 µM
Cn1cnc2c(C#N)nc(-c3ccc(OCCC4CCN(S(C)(=O)=O)CC4)c(C(F)(F)F)c3)cc21	> 10 µM

These compounds were tested against T2, Cathepsin K (Homo sapiens, UniProt P43235) (assay: Inhibition of human cathepsin K).
T2 sequence (P43235 whole entry): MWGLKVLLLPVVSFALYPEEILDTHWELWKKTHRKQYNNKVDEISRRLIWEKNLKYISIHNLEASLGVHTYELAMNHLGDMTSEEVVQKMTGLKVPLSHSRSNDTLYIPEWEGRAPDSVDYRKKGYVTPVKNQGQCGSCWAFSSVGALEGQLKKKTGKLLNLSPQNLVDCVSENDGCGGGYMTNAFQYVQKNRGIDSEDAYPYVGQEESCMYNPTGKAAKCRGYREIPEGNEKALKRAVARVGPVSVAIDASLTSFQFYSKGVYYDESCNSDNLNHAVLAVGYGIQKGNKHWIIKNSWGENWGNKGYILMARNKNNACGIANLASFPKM

SMILES	IC50
CC(=O)N1CCC(CCOc2ccc(-c3cc4c(ncn4C)c(C#N)n3)cc2C(F)(F)F)CC1	1910 nM
Cn1cnc2c(C#N)nc(-c3ccc(OCCC4CCN(S(C)(=O)=O)CC4)c(C(F)(F)F)c3)cc21	2340 nM

Each compound was assayed against Procathepsin L (Homo sapiens, UniProt P07711) (assay: Inhibition of human cathepsin L).
Sequence of Procathepsin L (P07711 whole entry): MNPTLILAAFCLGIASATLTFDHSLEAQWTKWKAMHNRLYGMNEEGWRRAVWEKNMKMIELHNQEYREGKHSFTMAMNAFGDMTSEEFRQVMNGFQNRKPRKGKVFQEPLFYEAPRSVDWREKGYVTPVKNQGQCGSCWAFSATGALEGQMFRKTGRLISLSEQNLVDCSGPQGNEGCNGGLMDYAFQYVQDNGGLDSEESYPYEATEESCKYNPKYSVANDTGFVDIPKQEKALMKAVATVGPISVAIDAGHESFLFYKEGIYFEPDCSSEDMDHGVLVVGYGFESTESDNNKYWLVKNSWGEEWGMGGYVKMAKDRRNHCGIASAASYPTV

SMILES	IC50
CN1CCC(CCOc2ccc(-c3cc4c(ncn4C)c(C#N)n3)cc2C(F)(F)F)CC1	> 10 µM
CC(=O)N1CCC(CCOc2ccc(-c3cc4c(ncn4C)c(C#N)n3)cc2C(F)(F)F)CC1	> 10 µM
Cn1cnc2c(C#N)nc(-c3ccc(OCCC4CCN(S(C)(=O)=O)CC4)c(C(F)(F)F)c3)cc21	> 10 µM

Each compound was assayed against T3, Cathepsin S (Homo sapiens, UniProt P25774) (assay: Inhibition of cathepsin S in human JY cells assessed as accumulation of lip10 by Western blot analysis).
Type: cell-based

T3 sequence (P25774 whole entry): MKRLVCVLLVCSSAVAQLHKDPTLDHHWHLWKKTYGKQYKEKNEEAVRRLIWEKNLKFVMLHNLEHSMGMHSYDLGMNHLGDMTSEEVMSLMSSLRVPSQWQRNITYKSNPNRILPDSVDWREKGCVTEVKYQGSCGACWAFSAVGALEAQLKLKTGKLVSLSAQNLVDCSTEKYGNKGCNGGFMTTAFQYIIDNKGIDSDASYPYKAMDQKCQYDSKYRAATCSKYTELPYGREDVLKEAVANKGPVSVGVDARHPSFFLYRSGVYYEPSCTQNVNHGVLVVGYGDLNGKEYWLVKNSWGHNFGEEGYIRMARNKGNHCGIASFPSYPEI

SMILES	IC50
CN1CCC(CCOc2ccc(-c3cc4c(ncn4C)c(C#N)n3)cc2C(F)(F)F)CC1	10 nM
CC(=O)N1CCC(CCOc2ccc(-c3cc4c(ncn4C)c(C#N)n3)cc2C(F)(F)F)CC1	235 nM
Cn1cnc2c(C#N)nc(-c3ccc(OCCC4CCN(S(C)(=O)=O)CC4)c(C(F)(F)F)c3)cc21	353 nM

The compounds below were run against Cathepsin B (Homo sapiens, UniProt P07858) (assay: Inhibition of human cathepsin B).

SMILES	IC50
CN1CCC(CCOc2ccc(-c3cc4c(ncn4C)c(C#N)n3)cc2C(F)(F)F)CC1	> 10 µM
CC(=O)N1CCC(CCOc2ccc(-c3cc4c(ncn4C)c(C#N)n3)cc2C(F)(F)F)CC1	> 10 µM
Cn1cnc2c(C#N)nc(-c3ccc(OCCC4CCN(S(C)(=O)=O)CC4)c(C(F)(F)F)c3)cc21	> 10 µM

What follows are compounds tested against T3, Cathepsin S (assay: Inhibition of human cathepsin S).

SMILES	IC50
CN1CCC(CCOc2ccc(-c3cc4c(ncn4C)c(C#N)n3)cc2C(F)(F)F)CC1	7.9 nM
CC(=O)N1CCC(CCOc2ccc(-c3cc4c(ncn4C)c(C#N)n3)cc2C(F)(F)F)CC1	13 nM
Cn1cnc2c(C#N)nc(-c3ccc(OCCC4CCN(S(C)(=O)=O)CC4)c(C(F)(F)F)c3)cc21	27 nM
